“And” between values parts separate entries of the source, which are not always exact repeats. Equal entries are not always repeated. Toxic doses and inconclusive results are not listed. No stated cut-off is given here; in the data, active means T/C of 150% or more; inactive means T/C below 125%.
Test system: L1210 leukemia ip in BDF1 mice, survival T/C
Assay: NCI In Vivo Anticancer Drug Screen. Data for tumor model L1210 Leukemia (intraperitoneal) in B6D2F1 (BDF1) mice
Conditions: endpoint: mean survival time, higher = longer survival
Summary of the method: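 Value reflects the ratio of survival in compound-treated mice to survival in vehicle-treated controls, with both groups carrying the same transplanted tumor.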

[1] = dose: 100.0 mg/kg/injection, schedule: Q01DX009 (ip), vehicle: Klucel (hydroxypropylcellulose) (HPC)
[2] = dose: 200.0 mg/kg/injection, schedule: Q01DX009 (ip), vehicle: Klucel (hydroxypropylcellulose) (HPC)
[3] = dose: 400.0 mg/kg/injection, schedule: Q01DX009 (ip), vehicle: Klucel (hydroxypropylcellulose) (HPC)
[4] = dose: 100.0 mg/kg/injection, schedule: Q04DX003 (ip), vehicle: Klucel (hydroxypropylcellulose) (HPC)
[5] = dose: 200.0 mg/kg/injection, schedule: Q04DX003 (ip), vehicle: Klucel (hydroxypropylcellulose) (HPC)
[6] = dose: 400.0 mg/kg/injection, schedule: Q04DX003 (ip), vehicle: Klucel (hydroxypropylcellulose) (HPC)
[7] = dose: 100.0 mg/kg/injection, schedule: Q01DX009 (ip), vehicle: saline with Tween-80
[8] = dose: 200.0 mg/kg/injection, schedule: Q01DX009 (ip), vehicle: saline with Tween-80
[9] = dose: 400.0 mg/kg/injection, schedule: Q01DX009 (ip), vehicle: saline with Tween-80
[10] = dose: 100.0 mg/kg/injection, schedule: Q04DX003 (ip), vehicle: saline with Tween-80
[11] = dose: 200.0 mg/kg/injection, schedule: Q04DX003 (ip), vehicle: saline with Tween-80
[12] = dose: 400.0 mg/kg/injection, schedule: Q04DX003 (ip), vehicle: saline with Tween-80
[13] = dose: 100.0 mg/kg/injection, schedule: Q01DX001 (ip), vehicle: carboxymethylcellulose (CMC)
[14] = dose: 200.0 mg/kg/injection, schedule: Q01DX001 (ip), vehicle: carboxymethylcellulose (CMC)
[15] = dose: 400.0 mg/kg/injection, schedule: Q01DX001 (ip), vehicle: carboxymethylcellulose (CMC)
[16] = dose: 50.0 mg/kg/injection, schedule: Q01DX001 (ip), vehicle: saline
[17] = dose: 100.0 mg/kg/injection, schedule: Q01DX001 (ip), vehicle: saline
[18] = dose: 200.0 mg/kg/injection, schedule: Q01DX001 (ip), vehicle: saline
[19] = dose: 400.0 mg/kg/injection, schedule: Q01DX001 (ip), vehicle: saline

Measured: T/C

CCCCCCCCCCCCCCCCCCNC(=O)N(C)C1CCCCC1
inactive: [1] 88 % of control | [2] 89 % of control | [3] 101 % of control

CCN(CC)P(=O)(N1CC1)N1CC1
124 % of control and 215 % of control: dose: 2.6 mg/kg/injection, schedule: Q01DX Z (ip), vehicle: saline
active: dose: 4.0 mg/kg/injection, schedule: Q01DX Z (ip), vehicle: saline 151 % of control | dose: 9.0 mg/kg/injection, schedule: Q01DX Z (ip), vehicle: saline 213 % of control
inactive: dose: 0.75 mg/kg/injection, schedule: Q01DX Z (ip), vehicle: saline 109 % of control | dose: 1.15 mg/kg/injection, schedule: Q01DX Z (ip), vehicle: saline 121 % of control | dose: 2.0 mg/kg/injection, schedule: Q01DX Z (ip), vehicle: saline 106 % of control | dose: 14.0 mg/kg/injection, schedule: Q01DX Z (ip), vehicle: saline 88 % of control and 91 % of control

CC(C(O)c1ccc(Br)cc1)C(O)(C(F)(F)F)C(F)(F)F (stereo unspecified)
inactive: dose: 100.0 mg/kg/injection, schedule: Q01DX009 (ip), vehicle: other 111 % of control | dose: 200.0 mg/kg/injection, schedule: Q01DX009 (ip), vehicle: other 97 % of control | dose: 400.0 mg/kg/injection, schedule: Q01DX009 (ip), vehicle: other 103 % of control

[CH3][Pb]([CH3])([CH3])[I]
inactive: [4] 103 % of control | [5] 98 % of control | [6] 94 % of control

O=C(Nc1ccc(-c2nc3ccccc3[nH]2)cc1)c1ccc(C(=O)Nc2ccc(-c3nc4ccccc4[nH]3)cc2)cc1
inactive: dose: 15.0 mg/kg/injection, schedule: Q01DX Z (ip), vehicle: carboxymethylcellulose (CMC) 97 % of control | dose: 30.0 mg/kg/injection, schedule: Q01DX Z (ip), vehicle: carboxymethylcellulose (CMC) 97 % of control | dose: 60.0 mg/kg/injection, schedule: Q01DX Z (ip), vehicle: carboxymethylcellulose (CMC) 94 % of control | dose: 120.0 mg/kg/injection, schedule: Q01DX Z (ip), vehicle: carboxymethylcellulose (CMC) 100 % of control

Ic1ccc(C2CC(c3ccccc3)=NN2c2ccccc2)cc1 (stereo unspecified)
inactive: [7] 96 % of control | [8] 92 % of control | [9] 91 % of control

Nc1cccc2ncc(C=O)n12
inactive: dose: 37.5 mg/kg/injection, schedule: Q01DX001 (ip), vehicle: Klucel (hydroxypropylcellulose) (HPC) 102 % of control | dose: 75.0 mg/kg/injection, schedule: Q01DX001 (ip), vehicle: Klucel (hydroxypropylcellulose) (HPC) 96 % of control | dose: 150.0 mg/kg/injection, schedule: Q01DX001 (ip), vehicle: Klucel (hydroxypropylcellulose) (HPC) 95 % of control

Nc1nc(CNc2ccc(Cl)cc2)nc(Nc2ccc(Cl)cc2)n1
inactive: [10] 89 % of control | [11] 95 % of control | [12] 95 % of control

COc1cc(/C=C2\CN(C)C(=O)C2=O)ccc1O
inactive: [7] 101 % of control | [10] 105 % of control | [8] 100 % of control | [11] 98 % of control | [9] 101 % of control | [12] 96 % of control

O=C(Cl)C1(Br)CC2c3ccccc3C1([N+](=O)[O-])c1ccccc12 (stereo unspecified)
inactive: [1] 88 % of control | [4] 108 % of control | [2] 91 % of control | [5] 95 % of control | [3] 96 % of control | [6] 104 % of control

Cc1cc2ncn(CO)c2cc1C
inactive: [10] 100 % of control | [11] 94 % of control | [12] 100 % of control

CN(CC(=O)O)CC1C(c2ccccc2)C1c1ccccc1 (stereo unspecified)
inactive: dose: 100.0 mg/kg/injection, schedule: Q04DX002 (ip), vehicle: Klucel (hydroxypropylcellulose) (HPC) 100 % of control | dose: 200.0 mg/kg/injection, schedule: Q04DX002 (ip), vehicle: Klucel (hydroxypropylcellulose) (HPC) 93 % of control

CCOC(=O)c1ccc(C)cc1Nc1ccccc1C(F)(F)F
inactive: [4] 90 % of control | [5] 94 % of control | [6] 95 % of control

C=CCN(CC=C)P(=O)(N1CC1)N1CC1C (stereo unspecified)
inactive: dose: 0.37 mg/kg/injection, schedule: Q01DX015 (ip), vehicle: carboxymethylcellulose (CMC) 117 % of control | dose: 6.0 mg/kg/injection, schedule: Q01DX009 (ip), vehicle: saline 90 % of control
active: dose: 10.0 mg/kg/injection, schedule: Q01DX001 (ip), vehicle: saline 162 % of control

C1=CC(c2ccccc2)=C(c2ccccc2)C(c2ccccc2)C(c2ccccc2)=C1 (stereo unspecified)
inactive: dose: 50.0 mg/kg/injection, schedule: Q01DX001 (ip), vehicle: carboxymethylcellulose (CMC) 94 % of control | [13] 96 % of control | [14] 96 % of control | [15] 89 % of control

COC(c1ccccc1)(c1ccccc1)N(C)C
inactive: [16] 97 % of control | [17] 105 % of control | [18] 97 % of control | [19] 94 % of control

Cc1ccc(Nc2cccc3c2C(=O)c2c(Nc4ccc(C)cc4C)cccc2C3=O)c(C)c1
inactive: dose: 100.0 mg/kg/injection, schedule: Q04DX002 (ip), vehicle: saline 97 % of control | dose: 200.0 mg/kg/injection, schedule: Q04DX002 (ip), vehicle: saline 117 % of control | dose: 400.0 mg/kg/injection, schedule: Q04DX002 (ip), vehicle: saline 100 % of control

O=C(O)c1c(O)cc(=O)oc1-c1ccc(Cl)cc1
inactive: [13] 87 % of control | [14] 92 % of control | [15] 100 % of control

N#CCCCOc1cccc(N)c1
inactive: [17] 101 % of control | [18] 101 % of control | [19] 101 % of control

CNC1C(OC2C(OC)OC(C)C2(O)CO)OC(CO)C(O)C1O (stereo unspecified)
inactive: dose: 100.0 mg/kg/injection, schedule: Q04DX003 (ip), vehicle: saline 110 % of control | dose: 200.0 mg/kg/injection, schedule: Q04DX003 (ip), vehicle: saline 97 % of control | dose: 400.0 mg/kg/injection, schedule: Q04DX003 (ip), vehicle: saline 97 % of control

Cc1ccc(NC(C(=O)c2ccccc2)c2ccccc2)cc1 (stereo unspecified)
inactive: dose: 300.0 mg/kg/injection, schedule: Q01DX Z (ip), vehicle: carboxymethylcellulose (CMC) 97 % of control | dose: 450.0 mg/kg/injection, schedule: Q01DX Z (ip), vehicle: carboxymethylcellulose (CMC) 103 % of control | dose: 675.0 mg/kg/injection, schedule: Q01DX Z (ip), vehicle: carboxymethylcellulose (CMC) 107 % of control

COc1cc(C)c(OC)c(CCl)c1C
inactive: [10] 97 % of control | [11] 98 % of control | [12] 92 % of control

CC(=O)Nc1ccc([N+](=O)[O-])cc1
inactive: dose: 100.0 mg/kg/injection, schedule: Q04DX002 (ip), vehicle: gum acacia 98 % of control | dose: 200.0 mg/kg/injection, schedule: Q04DX002 (ip), vehicle: gum acacia 88 % of control | dose: 400.0 mg/kg/injection, schedule: Q04DX002 (ip), vehicle: gum acacia 107 % of control

Cc1ccc(Nc2nc(N)nc(N)c2C=O)cc1C
inactive: [16] 109 % of control | [17] 109 % of control | [18] 100 % of control | [19] 97 % of control

CCOC(=O)c1cnc(SC)nc1Oc1ccccc1Cl
inactive: dose: 100.0 mg/kg/injection, schedule: Q01DX001 (ip), vehicle: saline with Tween-80 96 % of control | [7] 98 % of control | dose: 200.0 mg/kg/injection, schedule: Q01DX001 (ip), vehicle: saline with Tween-80 97 % of control | [8] 96 % of control | dose: 400.0 mg/kg/injection, schedule: Q01DX001 (ip), vehicle: saline with Tween-80 97 % of control | [9] 93 % of control

C1=Cc2ccccc2/C1=C/c1cccc(/C=C2\C=Cc3ccccc32)c1
inactive: dose: 6.25 mg/kg/injection, schedule: Q01DX009 (ip), vehicle: saline with Tween-80 101 % of control | dose: 12.5 mg/kg/injection, schedule: Q01DX009 (ip), vehicle: saline with Tween-80 97 % of control | dose: 12.5 mg/kg/injection, schedule: Q04DX003 (ip), vehicle: saline with Tween-80 100 % of control | dose: 25.0 mg/kg/injection, schedule: Q01DX009 (ip), vehicle: saline with Tween-80 97 % of control | dose: 25.0 mg/kg/injection, schedule: Q04DX003 (ip), vehicle: saline with Tween-80 95 % of control
